Article PMC8072890, “Aminoalkylamides of Eremomycin Exhibit an Improved Antibacterial Activity” (Pharmaceuticals, 2021)

What was measured:
[1] = system: E. faecalis 9; type: cell-based; conditions: strain resistant to vancomycin; broth dilution micromethod, CLSI; modal values (or range) of 3–5 independent tests
Excerpt: (§1) The antimicrobial activity of semisynthetic derivatives of eremomycin 4a–q was studied in comparison with vancomycin on a wide panel of Gram-positive bacteria sensitive (Staphylococcus aureus ATCC 29213, S. aureus R-2, S. haemoliticus 602, S. pneumoniae ATCC 6305, Enteroccus faecium 4, and E. faecalis 559) and resistant to vancomycin (S. aureus 3797, S.aureus 3798, E. faecium 2, E. faecium 3576, E. faecalis 9, E. faecalis 583, and E. gallinarum BΠ 4147), information about the strains given in Table S3. The minimum microbial inhibitory concentration (MIC) for the test compounds was determined by the broth dilution micromethod according to CLSI guidelines, and vancomycin and a standard strain S. aureus ATCC 29213 used as controls (Figure 2 and Tables S4 and S5).
(§2) Table S5. Antibacterial activity of vancomycin and derivatives 4a–q against resistant Gram-positive bacteria.
(§3) Strain/MIC (minimum inhibitory concentration; μg/ml)
(§4) Compound m n R S.aureus 3797 S.aureus 3798 E. faecium 2 E. faecium 3576 E. faecalis 9 E. faecalis 583 E. gallinarum
(§5) *MICs are presented as modal values for 3–5 independently replicate MIC tests for each strain and for the antibiotics. In the range of the obtained MIC
(§6) values, the obtained modal values are highlighted in bold.

[2] = system: E. gallinarum BΠ 4147; type: cell-based; conditions: strain resistant to vancomycin; broth dilution micromethod, CLSI; modal values (or range) of 3–5 independent tests
Excerpt: as §1, §2, §3, §4, §5, §6

[3] = system: E. faecium 2; type: cell-based; conditions: strain resistant to vancomycin; broth dilution micromethod, CLSI; modal values (or range) of 3–5 independent tests
Excerpt: as §1, §2, §3, §4, §5, §6

[4] = system: S. aureus 3797; type: cell-based; conditions: strain resistant to vancomycin; broth dilution micromethod, CLSI; modal values (or range) of 3–5 independent tests
Excerpt: as §1, §2, §3, §4, §5, §6

[5] = system: E. faecium 3576; type: cell-based; conditions: strain resistant to vancomycin; broth dilution micromethod, CLSI; modal values (or range) of 3–5 independent tests
Excerpt: as §1, §2, §3, §4, §5, §6

[6] = system: E. faecalis 583; type: cell-based; conditions: strain resistant to vancomycin; broth dilution micromethod, CLSI; modal values (or range) of 3–5 independent tests
Excerpt: as §1, §2, §3, §4, §5, §6

[7] = system: S.aureus 3798; type: cell-based; conditions: strain resistant to vancomycin; broth dilution micromethod, CLSI; modal values (or range) of 3–5 independent tests
Excerpt: as §1, §2, §3, §4, §5, §6

[8] = system: S. pneumoniae ATCC 6305; assay: MIC, broth dilution micromethod (CLSI); type: cell-based; conditions: sensitive strain, modal values (or range) of 3–5 independent tests
Excerpt: as §1
(§7) Table S4. Antibacterial activity of vancomycin and derivatives 4a–q against sensitive Gram-positive bacteria.
(§8) Strain/MIC (Minimum inhibitory concentration, μg/ml)*
(§9) Compound m n R S.aureus АТСС S.aureus R-2 S.haemoliticus S.pneumoniae АТСС E. faecium 4 E. faecalis 559
(§10) *MICs are presented as modal values for 3–5 independently replicated MIC tests for each strain and for the antibiotics. In the range of the
(§11) obtained MIC values, the obtained modal values are highlighted in bold.

[9] = system: S. haemoliticus 602; type: cell-based; conditions: sensitive strain; broth dilution micromethod, CLSI; modal values (or range) of 3–5 independent tests
Excerpt: as §1, §7, §8, §9, §10, §11

[10] = system: E. faecium 4; type: cell-based; conditions: sensitive strain; broth dilution micromethod, CLSI; modal values (or range) of 3–5 independent tests
Excerpt: as §1, §7, §8, §9, §10, §11

[11] = system: E. faecalis 559; type: cell-based; conditions: sensitive strain; broth dilution micromethod, CLSI; modal values (or range) of 3–5 independent tests
Excerpt: as §1, §7, §8, §9, §10, §11

[12] = system: Staphylococcus aureus ATCC 29213; type: cell-based; conditions: vancomycin-sensitive control strain; broth dilution micromethod, CLSI; modal values (or range) of 3–5 independent tests
Excerpt: as §1, §7, §8, §9, §10, §11

[13] = system: S. aureus R-2; type: cell-based; conditions: sensitive strain; broth dilution micromethod, CLSI; modal values (or range) of 3–5 independent tests
Excerpt: as §1, §7, §8, §9, §10, §11

[14] = system: S. aureus (strain 10, clinical isolate); assay: Mouse staphylococcal sepsis model, single IV administration; type: in vivo, mice (SHK colony); conditions: for Survival: single IV, 30 min after infection, n = 10
Procedure: A comparative study of the efficacy of eremomycin N-(2-((2-fluorobenzyl)amino)ethyl)amide (4e) and vancomycin was carried out in a mice staphylococcal sepsis model. Healthy female mice of the SHK colony weighing 20–22 g after two-week quarantine were randomized into groups (n = 10) and received S. aureus as the infectious agent (strain 10, clinical isolate, adapted for growth in vivo by five-fold passaging in mice). In the experiment, female mice of the SHK colony weighing 20–22 g were used. S. aureus (strain 10, clinical isolate), adapted for growth in vivo by five-fold passaging in mice, was used as the infectious agent. Initially, the lethal dose (LD100) of staphylococcus was determined for this mouse line using the intravenous infection route. The mice deaths were counted daily for 10 days. Thus, the lethal dose (LD100) was defined as 8 × 10^8 CFU/mouse. Afterwards, the mice were seated in cages of 10 heads and were infected intravenously with S. aureus at a lethal dose, and the efficacy of the tested drugs was determined by the ED50 value (i.e., the dose at which 50% of the experimental animals survive). Then, 30 min after infection, the mice were injected intravenously with eremomycin N-(2-((2-fluorobenzyl)amino)ethyl)amide (4e) at single doses from 0.1 to 2.5 mg/kg. or vancomycin at doses from 2.5 to 7.5 mg/kg. As a control dose, a group of untreated animals infected with a lethal dose of S. aureus was present in the experiment. The determination of ED50 of the tested compounds was carried out in one experiment under a single control using the Behrens method.

MIC E. faecalis 9 [1] [µg/mL]	MIC E. gallinarum ВП 4147 [2] [µg/mL]	MIC E. faecium 2 [3] [µg/mL]	MIC S.aureus 3797 [4] [µg/mL]	MIC E. faecium 3576 [5] [µg/mL]	MIC E. faecalis 583 [6] [µg/mL]	MIC S.aureus 3798 [7] [µg/mL]	MIC S.pneumoniae ATCC 6305 [8] [µg/mL]	MIC S.haemoliticus 602 [9] [µg/mL]	MIC E. faecium 4 [10] [µg/mL]	MIC E. faecalis 559 [11] [µg/mL]	MIC S.aureus ATCC 29213 [12] [µg/mL]	MIC S.aureus R-2 [13] [µg/mL]	Substance	Survival ([14]; dose 0.5 mg/kg) [%]	Survival ([14]; dose 1.5 mg/kg) [%]	Survival ([14]; dose 2.5 mg/kg) [%]	Survival ([14]; dose 3.5 mg/kg) [%]	Survival ([14]; dose 4.5 mg/kg) [%]	Survival ([14]; dose 5.5 mg/kg) [%]	ED50 ([14]; mice infected IV with lethal dose of S. aureus (8 × 10^8 CFU/mouse), single IV dose 30 min after infection, n = 10 per group, observed 14 days, Behrens method) [mg/kg]
0.25	2	2	1	2	2	2	0.03 to 0.06	0.25	1	1	0.5	0.25 to 0.5	Eremomycin N-(2-((2,4-dichlorobenzyl)amino)ethyl)amide [4n]							
0.06	1	1	0.5	1 to 2	0.5	0.5 to 1	0.25	0.5	0.25 to 0.5	0.25	0.25	0.03	Eremomycin N-(2-(benzylamino)ethyl)amide [4a]							
0.03	1	0.5	0.5	0.5 to 1	0.5	0.5 to 1	0.01	0.25	0.25	0.5	0.03	0.06	Eremomycin N-(2-((4-methoxybenzyl)amino)ethyl)amide [4d]							
0.25	4	1 to 2	2	4	4	2	0.01	0.5	1	2	1	2	Eremomycin N-(2-((4-trifluoromethylbenzyl)amino)ethyl)amide [4q]							
0.03	1	0.5	1	1	0.5 to 1	2	0.01	0.5	0.25	0.25 to 0.5	0.03	0.06	Eremomycin N-(2-((3-fluorobenzyl)amino)ethyl)amide [4g]							
0.06	0.5	0.5	0.25 to 0.5	1	0.5 to 1	1	00.03	0.25	0.25	0.5	0.125 to 0.25	0.25	Eremomycin N-(2-((4-chlorobenzyl)amino)ethyl)amide [4i]							
0.25	2	1	1 to 2	4	1	4	0.01	0.25 to 0.5	1	1	0.25	0.25	Eremomycin N-(2-((2,3,4,5,6-pentafluorobenzyl)amino)ethyl)amide [4p]							
													Eremomycin	20	40	80	80	100	100	1.8
0.25	1	1	2	2	1	1	0.03 to 0.06	0.125	0.25	1	0.125	0.25	Eremomycin N-(2-((2-chloro-4-fluorobenzyl)amino)ethyl)amide [4l]							
0.25 to 0.5	2	1	2	2	1	2	0.06	0.125	0.5	0.5 to 1	0.25	0.125 to 0.25	Eremomycin N-(2-((2-chloro-6-fluorobenzyl)ethyl)amide [4m]							
0.06	1	1	1	2	0.5	2	0.01	0.5	0.5	0.5	0.5	0.06	Eremomycin N-(2-phenethylamino)ethyl)amide [4b]							
0.03	0.5 to 1	0.5	0.25	2	0.5 to 1	0.5	0.01	0.25	0.25	0.125	0.25	0.06	Eremomycin N-(2-((4-fluorobenzyl)amino)ethyl)amide [4h]							
